Measured values as given in patent publication US20260218439A1, “METHOD OF TREATING OR REDUCING CANCER COMPRISING ADMINISTERING A COMPOUND 3-(BENZO[D][1,3]DIOXOL-5-YL)-7-(1-HYDROXYPROPAN-2-YL)-1-(1H-INDOLE-3-YL)-6,7-DIHYDRO-3H-OXAZOLE[3,4-A]PYRAZINE-5,8-DIONE” (BIOLAB SANUS FARMACEUTICA LTDA, priority 2019, published 2026).

How the values were obtained:
PDE5A1 = biological target: T1, PDE5A1 (Homo sapiens, UniProt O76074); test: PDE5A1 fluorescence polarization enzyme assay (BPS Bioscience kit 60350); type: biochemical
T1 construct: purchased BPS Bioscience 60350
Experimental: The evaluation of the compound is studied using BPS Bioscience enzyme assay kit (catalogue 60350). The PDE5A1 Assay kit is designed for identification of PDE5A1 inhibitors using fluorescence polarization. The assay is based on the binding of a fluorescent nucleotide monophosphate generated by PDE5A1 enzyme to the binding agent.
In this methodology only two simple steps on a microtiter plate are required for PDE5A1 reactions. First, the fluorescently labeled cGMP is incubated with PDE5A1 for 1 hour. Second, the binding agent is added to the reaction mixture to produce a change in fluorescent polarization that can then be measured using a fluorescence reader equipped for the measurement of fluorescence polarization.
For the assay the storage reagent FAM-Cyclic-3′,5′-GMP (20 μM) is diluted with PDE assay buffer to achieve the solution with a […]; the PDE5A1 enzyme is thawed and diluted with the PDE buffer obtaining a PDE5A1 solution at 10 μg/mL.
The assay compounds are diluted with DMSO 100% (v/v) at a concentration of 1000 μM and subsequently diluted in a Sodium chloride 0.9% solution to obtain a curve of concentrations of interest for the assay. The compounds are diluted in concentrations of: 10 nM, 30 nM, 50 nM, 100 nM, 300 nM, 500 nM, 1 μM, 3 μM, 5 μM (DMSO 10% v/v).
The study is comprised of groups: (i) substrate control; (ii) positive control (KIT); (iii) samples in several concentrations; (iv) tadalafil (comparative control). Each parameter (group) is triple labeled.
• For the 4 groups there is added, to each microplate well, […] of the FAM-Cyclic-3′ reagent, 5′-GMP (200 μM). • To the substrate control group there is added, to each well, […] of vehicle (DMSO 10% v/v) and […] PDE Buffer. • To the positive control group there is added, to each well, […] of vehicle (DMSO 10% v/v). • To the tadalafil group: there is added 5 mL of the solution in the concentrations of interest. • To the test group there is added 5 mL of the sample solution (test compound)
OBSERVATION: the parameters tested are in triplicate.
To begin the reaction, add […] of the PDE5A1 enzyme (diluted as described above) to the microplate wells designated as Positive Control and Samples (test and tadalafil), and incubate the microplate, for 1 hour, at a temperature of 25° C.
After the incubation period, the reaction is interrupted by the addition, in all the wells, of […] of the binding agent solution and the microplate is incubated for 30 minutes, under light stirring, at room temperature. The reading of the microplate is carried out in Polarized Fluorescence (475-495 nm—excitation and 518-538 nm—emission detection) 500 nanoseconds integration time.

[1] = tested on: PC3-human prostate cancer cells; test: Cell proliferation inhibition (CYQuant intracellular DNA), PC3; type: cell-based; conditions: for % Cell Proliferation Inhibition (intracellular DNA) PC-3 (average ± E.P.M.): 72 hours
Experimental: (§1) For the execution of the assay, the compounds are diluted in DMSO 100% (v/v) at a concentration of 1000 μM and subsequently diluted in a Sodium Chloride solution 0.9% to obtain the storage solutions of interest for use in the assays. The final concentration of interest will be directly diluted in the cell culture medium. For the assay there are used the following tumor cell lineages: PC3-human prostate cancer cells; LNCAP-human prostate cancer cells; DU145-human prostate cancer; MNK45-human gastric cancer and RT4-human bladder cancer cells. The tumor cell lineages are maintained in culture according to standard procedures established by the Cell Bank of Rio de Janeiro (lineage place of origin) Procedure: • For the assay, the tumor cells are seeded in the concentration of 10.000 cells per well (final volume of the reaction of […]), the plate is incubated for 8 hours, for the cells to adhere to the wall of the wells. After this period, the plate is divided in groups: • (a) test group: […] of the samples were added (test compound) in the concentrations of interest; • (b) positive control group: […] of culture medium were added (100% of cell proliferation); • (c) negative control group: 200 mL of culture medium and […] of the vehicle used were added to dilute the compounds (without cells—zero proliferation); • (d) control group: […] were added of the vehicle used to dilute the compounds. This group is important to evaluate whether the vehicle used interferes in the cell proliferation. OBSERVATION: the treatment with the concentrations of samples (test compounds) and of the controls are carried out in triplicate. • Incubate the plate for 72 hours in a CO2 kiln at 37° C. • After the incubation period, add […] of the solution with DNA marker from the CYQuant Kit and incubate the plate, for 60 minutes, in a CO2 incubator at 37° C. The fluorescence intensity is determined using a fluorescence microplate reader with 485 nm excitation and 530 nm emission detection. The results obtained were normalized relative to the positive control group (100% proliferation). For the compounds there are prepared the storage solutions in the concentrations of: 100 nM, 1 μM, 3 μM, 5 μM, 10 μM and 30 μM (DMSO 10% v/v). While the final concentrations in the test are of: 10 nM, 100 nM, 300 nM, 500 nM, 1000 nM and 3000 nM (in DMSO 1% v/v).

[2] = tested on: LNCAP-human prostate cancer cells; test: Cell proliferation inhibition (CYQuant intracellular DNA), LNCAP; type: cell-based; conditions: for % Cell Proliferation Inhibition (intracellular DNA) LNCAP (average ± E.P.M.): 72 hours
Experimental: as §1

[3] = tested on: DU145-human prostate cancer; test: Cell proliferation inhibition (CYQuant intracellular DNA), DU145; type: cell-based; conditions: for % Cell Proliferation Inhibition (intracellular DNA) DU145 (average ± E.P.M.): 72 hours
Experimental: as §1

[4] = tested on: MNK45-human gastric cancer; test: Cell proliferation inhibition (CYQuant intracellular DNA), MNK45; type: cell-based; conditions: 72 hours
Experimental: as §1

[5] = tested on: RT4-human bladder cancer cells; test: Cell proliferation inhibition (CYQuant intracellular DNA), RT4; type: cell-based; conditions: for % Cell Proliferation Inhibition (intracellular DNA) RT4 (average ± E.P.M.): 72 hours
Experimental: as §1

Substance: (R)-3-(benzo [d][1, 3]dioxol-5-yl)-7-((S)-1-hydroxypropan-2-yl)-1-(1H-indole-3-yl)-6, 7-dihydro-3H-oxazole [3, 4-a]pyrazine-5, 8-dione with (S)-3-(benzo [d][1,3]dioxol-5-yl)-7-((S)-1-hydroxypropan-2-yl)-1-(1H-indole-3-yl)-6, 7-dihydro-3H-oxazole [3, 4-a]pyrazine-5, 8-dione [BL-241]
- % of Inhibition (PDE5A1) (PDE5A1; compound 500 nM): 57%
- % of Inhibition (PDE5A1) (PDE5A1; compound 1000 nM): 71%
- % of Inhibition (PDE5A1) (PDE5A1; compound 3000 nM): 88%
- PDE5 inhibition (result in words) (PDE5A1; concentration series): capable of inhibiting the PDE5 in a dose-dependent manner
- antiproliferative effect (result in words) ([1]; PC3 prostate cancer tumor lineage): presented antiproliferative effect
- % Cell Proliferation Inhibition (intracellular DNA) PC-3 (average ± E.P.M.) ([1]; PC-3, 10 nM): 27 ± 11%
- % Cell Proliferation Inhibition (intracellular DNA) PC-3 (average ± E.P.M.) ([1]; PC-3, 100 nM): 36 ± 7%
- % Cell Proliferation Inhibition (intracellular DNA) PC-3 (average ± E.P.M.) ([1]; PC-3, 300 nM): 42 ± 6%
- % Cell Proliferation Inhibition (intracellular DNA) PC-3 (average ± E.P.M.) ([1]; PC-3, 500 nM): 46 ± 1%
- % Cell Proliferation Inhibition (intracellular DNA) PC-3 (average ± E.P.M.) ([1]; PC-3, 1000 nM): 33 ± 3%
- antiproliferative effect (result in words) ([2]; LNCAP prostate cancer tumor lineage): presented antiproliferative effect
- % Cell Proliferation Inhibition (intracellular DNA) LNCAP (average ± E.P.M.) ([2]; 10 nM): 25 ± 2%
- % Cell Proliferation Inhibition (intracellular DNA) LNCAP (average ± E.P.M.) ([2]; 100 nM): 37 ± 3%
- % Cell Proliferation Inhibition (intracellular DNA) LNCAP (average ± E.P.M.) ([2]; 300 nM): 38 ± 4%
- % Cell Proliferation Inhibition (intracellular DNA) LNCAP (average ± E.P.M.) ([2]; 500 nM): 44 ± 2%
- % Cell Proliferation Inhibition (intracellular DNA) LNCAP (average ± E.P.M.) ([2]; 1000 nM): 34 ± 6%
- % Cell Proliferation Inhibition (intracellular DNA) DU145 (average ± E.P.M.) ([3]; DU145, 100 nM): 33 ± 8%
- % Cell Proliferation Inhibition (intracellular DNA) DU145 (average ± E.P.M.) ([3]; DU145, 300 nM): 17 ± 3%
- % Cell Proliferation Inhibition (intracellular DNA) DU145 (average ± E.P.M.) ([3]; DU145, 500 nM): 18 ± 2%
- % Cell Proliferation Inhibition (intracellular DNA) DU145 (average ± E.P.M.) ([3]; DU145, 1000 nM): 22 ± 2%
- % Cell Proliferation Inhibition (intracellular DNA) DU145 (average ± E.P.M.) ([3]; DU145, 3000 nM): 43 ± 5%
- antiproliferative effect (result in words) ([3]; DU145 prostate cancer tumor lineage): presented antiproliferative effect
- % Cell Proliferation Inhibition (intracellular DNA) MNK45 (average ± E.P.M.) ([4]; MNK45, 100 nM): 25 ± 1%
- % Cell Proliferation Inhibition (intracellular DNA) MNK45 (average ± E.P.M.) ([4]; MNK45, 300 nM): 10 ± 2%
- % Cell Proliferation Inhibition (intracellular DNA) MNK45 (average ± E.P.M.) ([4]; MNK45, 500 nM): 2 ± 1%
- % Cell Proliferation Inhibition (intracellular DNA) MNK45 (average ± E.P.M.) ([4]; MNK45, 1000 nM): 4 ± 1%
- % Cell Proliferation Inhibition (intracellular DNA) MNK45 (average ± E.P.M.) ([4]; MNK45, 3000 nM): 20 ± 3%
- % Cell Proliferation Inhibition (intracellular DNA) RT4 (average ± E.P.M.) ([5]; RT4, 100 nM): 28 ± 6%
- % Cell Proliferation Inhibition (intracellular DNA) RT4 (average ± E.P.M.) ([5]; RT4, 300 nM): 5 ± 2%
- % Cell Proliferation Inhibition (intracellular DNA) RT4 (average ± E.P.M.) ([5]; RT4, 500 nM): 4 ± 2%
- % Cell Proliferation Inhibition (intracellular DNA) RT4 (average ± E.P.M.) ([5]; RT4, 1000 nM): 11 ± 8%
- % Cell Proliferation Inhibition (intracellular DNA) RT4 (average ± E.P.M.) ([5]; RT4, 3000 nM): 57 ± 4%
- antiproliferative effect (result in words) ([5]; RT4 bladder cancer tumor lineage): presented antiproliferative effect
